# Experimental data from patent publication US20050113450A1, “Antibacterial agents” (priority 2002, published 2005).
# Test system: SA 9218
# Test: MIC by standard agar dilution method
# Type: cell-based
# Conditions: Mueller Hinton agar, 10^4 to 10^5 cells per spot, incubated overnight at 35° C., lowest concentration that inhibits visible growth
# In short: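 MIC read after overnight 35 °C incubation as lowest drug level preventing visible growth. Inoculum of roughly 10^4–10^5 cells per spot (0.5 McFarland, 1:20 in TSB) applied to Mueller Hinton agar containing serial 2-fold compound dilutions.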
Structure (SMILES),MIC [µg/mL],SA 9218 MIC [µg/mL]
CN(c1ccc(Cl)cc1)S(=O)(=O)c1ccc(Br)c(C(=O)Nc2ccc(Br)cc2C(=O)O)c1 [PNU-291061],16,
COc1ccc(C(=O)Nc2ccc(Cl)cc2C(=O)O)cc1[N+](=O)[O-] [PNU-291408],,32
COc1ccc(C(=O)Nc2ccc(Cl)cc2C(=O)O)cc1[N+](=O)[O-] [PNU-292070],,2
O=C(Nc1ccc(Br)cc1C(=O)O)c1ccc(C(=O)N2CCc3ccccc32)cc1 [PNU-292577],128,
CN(c1ccc(Cl)cc1)S(=O)(=O)c1ccc(C(=O)Nc2ccc([N+](=O)[O-])cc2C(=O)O)cc1 [PNU-293032],16,
CN(c1ccc(Cl)cc1)S(=O)(=O)c1cc(C(=O)Nc2ccc(Br)cc2C(=O)O)ccc1N1CCOCC1 [PNU-293795],32,
N#Cc1ccc(C(=O)Nc2ccc(Br)cc2C(=O)O)cc1S(=O)(=O)N1CCc2ccccc21 [PNU-293905],8,
O=C(Nc1ccc(Cl)cc1C(=O)O)c1ccc(C(=O)C2CCCC2)cc1 [drawing 1027],,8
CCCC(Oc1ccc(C(=O)Nc2ccc(Br)cc2C(=O)O)cc1)C(=O)OCC (centres unmarked) [drawing 1052],,64
O=C(Nc1ccc(Cl)cc1C(=O)O)c1cccc(C(=NO)c2ccco2)c1 [drawing 1086],,2
CCCC(Oc1ccc(C(=O)Nc2ccc(Br)cc2C(=O)O)cc1)C(=O)OCC (centres unmarked) [drawing 1091],64,
C=CCON=C(c1ccc(C(=O)Nc2ccc(Cl)cc2C(=O)O)cc1)c1ccco1 [drawing 1095],32,
O=C(Nc1ccc(Cl)cc1C(=O)O)c1cccc(C(=NO)c2ccco2)c1 [drawing 1121],,8
C=CCON=C(c1ccc(C(=O)Nc2ccc(Cl)cc2C(=O)O)cc1)c1ccco1 [drawing 1123],,64
Cc1ccc(C(=O)Nc2ccc(Br)cc2C(=O)O)cc1S(=O)(=O)N(C)c1ccc(Cl)cc1 [drawing 1134],,1

# The remaining lines, values ahead:
MIC [µg/mL],SA 9218 MIC [µg/mL],Structure (SMILES)
0.5,,O=C(Nc1ccc(Br)cc1C(=O)O)c1ccc(S(=O)(=O)n2ccc3cc(F)ccc32)cc1 [PNU-291129]
4,,O=C(Nc1ccc(Br)cc1C(=O)O)c1ccc(S(=O)(=O)n2cccc2)cc1 [PNU-291130]
4,,CCCN(CCC)S(=O)(=O)c1ccc(C(=O)Nc2ccc(Cl)cc2C(=O)O)cc1Br [PNU-291410]
2,,COc1ccc2c(ccn2S(=O)(=O)c2ccc(C(=O)Nc3ccc(Br)cc3C(=O)O)cc2)c1 [PNU-291517]
8,,COc1ccc(C(=O)Nc2ccc(Br)cc2C(=O)O)cc1S(=O)(=O)N(C)c1ccc(Cl)cc1 [PNU-291570]
0.5,,Cc1ccc(C(=O)Nc2ccc(Br)cc2C(=O)O)cc1S(=O)(=O)N(C)c1ccc(Cl)cc1 [PNU-291571]
1,,CN(c1ccc(Cl)cc1)S(=O)(=O)c1cc(C(=O)Nc2ccc(Br)cc2C(=O)O)ccc1Br [PNU-291679]
1,,O=C(Nc1ccc(Br)cc1C(=O)O)c1ccc(S(=O)(=O)Nc2ccccc2O)cc1 [PNU-291997]
0.5,,CN(c1ccc(Cl)cc1)S(=O)(=O)c1cccc(C(=O)Nc2ccc([N+](=O)[O-])cc2C(=O)O)c1 [PNU-292379]
4,,O=C(Nc1ccc(Br)cc1C(=O)O)c1cccc(SCc2ccccc2)c1 [PNU-293049]
4,,O=C(Nc1ccc(Cl)cc1C(=O)O)c1cccc(C(=O)c2ccccc2)c1 [drawing 1011]
0.5,,O=C(Nc1ccc(Br)cc1C(=O)O)c1cccc(C(=NO)c2ccccc2)c1 [drawing 1035]
4,,O=C(Nc1ccc(Br)cc1C(=O)O)c1cccc(OCc2ccccc2)c1 [drawing 1037]
4,,O=C(Nc1ccc(Cl)cc1C(=O)O)c1ccc(C(=O)C2CCCC2)cc1 [drawing 1111]
